Counter-ions that a name gives are not always drawn.
Experiments:
[1] = molecular target: T1, dopamine-β-hydroxylase (DBH) (Bos taurus, UniProt P15101); conditions: cited from earlier work; for DBH inhibition (in words): literature reports
T1 sequence (P15101 1-610): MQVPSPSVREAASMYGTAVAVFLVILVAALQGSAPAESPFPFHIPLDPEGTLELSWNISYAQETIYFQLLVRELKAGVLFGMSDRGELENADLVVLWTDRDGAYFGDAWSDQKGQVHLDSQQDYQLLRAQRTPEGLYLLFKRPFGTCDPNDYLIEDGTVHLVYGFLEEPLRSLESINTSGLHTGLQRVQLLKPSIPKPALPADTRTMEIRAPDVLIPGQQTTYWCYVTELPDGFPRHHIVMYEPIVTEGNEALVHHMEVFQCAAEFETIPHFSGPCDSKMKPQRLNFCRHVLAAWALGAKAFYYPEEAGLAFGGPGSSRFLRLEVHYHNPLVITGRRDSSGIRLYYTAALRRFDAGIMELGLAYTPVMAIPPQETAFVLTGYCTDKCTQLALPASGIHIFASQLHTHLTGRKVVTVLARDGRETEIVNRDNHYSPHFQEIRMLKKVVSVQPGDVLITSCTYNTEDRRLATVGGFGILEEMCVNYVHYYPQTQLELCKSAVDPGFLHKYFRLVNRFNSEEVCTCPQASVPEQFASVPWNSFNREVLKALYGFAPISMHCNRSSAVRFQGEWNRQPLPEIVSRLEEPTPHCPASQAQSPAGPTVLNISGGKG

[2] = molecular target: T1, dopamine-β-hydroxylase (DBH); assay: in vitro DBH inhibition: conversion of tyramine to octopamine (standard procedure of Pisano et al.); format: biochemical; conditions: absorbance at 330 nm, read-out: DBH IC50 (molar concentration of compound at which DBH activity was halved)
Description: Listed in Table I are the compounds of the invention that were tested for in vitro DBH inhibition by a standard procedure for assaying conversion of tyramine to octopamine in the presence of DBH. J. J. Pisano, et al., Biochim. Biophys. Acta, 43, 566-568 (1960). Octopamine was assayed following sodium periodate oxidation to p-hydroxybenzaldehyde by measuring spectrophotometric absorbance at 330 nm. In Table I, inhibition is given in molar concentration of compound at which DBH activity was halved (IC50).

[3] = Ehrreich et al.; cited from earlier work
[4] = mean arterial blood pressure in spontaneously hypertensive rats; format: in vivo; conditions: 50 mg/kg intraperitoneally
Description: Further, spontaneously hypertensive rats were treated with a suspension or solution of N-(2-aminoethyl)-1-(3,5-difluorobenzyl)-2-mercaptoimidazole-5-carboxamide,formate at a dose of 50 mg/kg intraperitoneally, and mean arterial blood pressure was monitored for 260 minutes using indwelling cannulae in the tail arteries.

[5] = Teresawa et al. and references cited therein; cited from earlier work

## NOCc1ccccc1 [Benzyloxyamine, benzyloxyamine]
[1]
  mode of DBH inhibition: competitive inhibitors

## CN(C)C(=S)SCc1ccc(C(=O)O)nc1 [5-(dimethyldithiocarbamoylmethyl)picolinic acid]
[1]
  DBH inhibition (in words): DBH inhibitors

## O=C(O)c1cnc(S)n1Cc1cc(F)cc(F)c1 [1-(3,5-Difluorobenzyl)-2-mercaptoimidazole-5-carboxylic acid]
[2]
  IC50: 100 µM

## O=C(O)c1ccc(CCCCCl)cn1 [5-(4-chlorobutyl) picolinic acid]
[1]
  DBH inhibition (in words): inhibit DBH

## CCCCc1ccc(C(N)=O)nc1 [Bupicomide, 5-(n-butyl)picolinamine]
[3]
  antihypertensive activity: has antihypertensive activity
[1]
  DBH inhibition (in words): DBH inhibitor

## NCCNC(=O)c1cnc(S)n1Cc1cc(F)cc(F)c1 [N-(2-Aminoethyl)-1-(3,5-difluorobenzyl)-2-mercaptoimidazole-5-carboxamide,formate]
[2]
  IC50: 0.34 µM
[4]; spontaneously hypertensive rats
  mean arterial blood pressure reduction compared to vehicle-treated controls: significant blood pressure reductions
[4]; monitored for 260 minutes
  blood pressure when monitoring was terminated: blood pressure remained decreased

## O=C(O)c1ccc(CCC(Br)CBr)cn1 (stereo not drawn) [5-(3,4-dibromobutyl)picolinic acid]
[1]
  DBH inhibition (in words): DBH inhibitors

## NNCc1ccccc1 [benzylhydrazine]
[1]
  mode of DBH inhibition: competitive inhibitors

## CCCCc1ccc(C(=O)O)nc1 [Fusaric acid]
[5]
  toxicity: hepatotoxic

Source: patent US4762850A, “Dopamine-beta-hydroxylase inhibitors” (SmithKline Beckman Corporation, priority 1987, dated 1988)
